In ChEMBL document CHEMBL1158250, “(all trans)-2,4,6,8,10,12-tetradecahexene-1,14-dial, a new pigment from Conidiobolus paulus” (J Nat Prod, 1996):

Tests used:
[1] = test system: Bacillus cereus; assay: Antibacterial activity against Bacillus cereus B-3705 after 24 hrs by antibiotic disk assay; type: functional
[2] = Toxicity in chick embryo up to 100 ug; set-up: species or system Gallus gallus; settings: chicken
[3] = test system: Escherichia coli; assay: Antibacterial activity against Escherichia coli B-3704 after 24 hrs by antibiotic disk assay; type: functional

MIC [1]: 10 µg
MIC [3]: 50 µg
SMILES: O=C/C=C/C=C/C=C/C=C/C=C/C=C/C=O
Activity [2]: Non-toxic
